Where a name gives a salt, the structure may show the parent alone. Read-outs that look alike come from different tables or passages of the source.
Tested on: angiotensin II (aortic blood vessel of rabbits)
Assay: Antagonistic effect on angiotensin II (A II)-induced tension, aortic blood vessel of rabbits
Type: cell-based
Details: Oryctolagus cuniculus, 0.25 h; for inhibition at 0.1 µM: 10^-7 M drug substance
[1] = 10^-5 M drug substance, A II 4×10^-9 M, 15 minutes, read-out: Inhibition
[2] = 10^-6 M drug substance, A II 4×10^-9 M, 15 minutes, read-out: Inhibition

From the text: Antagonistic effect of the compound (I) of the present invention on angiotensin II (hereinafter referred to briefly as "A II") (with aortic blood vessel of rabbits)
The blood-vessel preparation and reaction were done in accordance with the method as described in "European Journal of Pharmacology", 18, 316 (1972). […] [formula] where; T1 =Change in isometric tension of the blood vessel brought about by A II without a test drug substance (g)

**Q.** How did the inhibition at 10 µM [1] turn out when Cc1ccccc1Cn1c(-c2ccccc2)nc(Cl)c1CC(=O)O was run?
**A.** 58%

**Q.** For O=C(O)Cc1c(Cl)nc(-c2ccccc2)n1Cc1c(Cl)cccc1Cl, which inhibition at 1 µM [2] is on record?
**A.** 34%

**Q.** Which inhibition at 1 µM [2] does the source give for O=C(O)Cc1c(Cl)nc(-c2ccccc2)n1Cc1c(F)cccc1Cl here?
**A.** 64%

**Q.** For O=C(O)Cc1c(Cl)nc(-c2ccccc2)n1Cc1ccccc1Br, which inhibition at 1 µM [2] is on record?
**A.** 60%

**Q.** Which inhibition at 10 µM [1] does the source give for CCCCNc1ccc(-c2nc(Cl)c(CC(=O)O)n2Cc2ccccc2)cc1 here?
**A.** 63%

**Q.** O=C(O)Cc1c(Cl)nc(-c2ccccc2[N+](=O)[O-])n1Cc1ccccc1 was tested. Which inhibition at 10 µM [1] did it give?
**A.** 35%

**Q.** For Nc1ccccc1-c1nc(Cl)c(CC(=O)O)n1Cc1ccccc1, which inhibition at 10 µM [1] is on record?
**A.** 30%

**Q.** How did the inhibition at 10 µM [1] turn out when O=C(O)Cc1c(Cl)nc(-c2cccc(O)c2)n1Cc1ccccc1 was run?
**A.** 18%

**Q.** With O=C(O)Cc1c(Cl)nc(-c2ccc3c(c2)OCO3)n1Cc1ccccc1 as the molecule, how does the inhibition at 10 µM [1] read?
**A.** 51%

**Q.** How did the inhibition at 10 µM [1] turn out when CN(C)c1ccc(-c2nc(Cl)c(CC(=O)O)n2Cc2ccccc2)cc1[N+](=O)[O-] was run?
**A.** 73%

**Q.** With CN(C)c1c([N+](=O)[O-])cc(-c2nc(Cl)c(CC(=O)O)n2Cc2ccccc2)cc1[N+](=O)[O-] as the molecule, how does the inhibition at 10 µM read?
**A.** 86%

**Q.** With CCN(CC)c1ccc(-c2nc(Cl)c(CC(=O)O)n2Cc2ccccc2)cc1Cl as the molecule, how does the inhibition at 1 µM [2] read?
**A.** 25%

**Q.** O=C(O)Cc1c(Cl)nc(-c2ccccc2O)n1Cc1ccccc1 was tested. Which inhibition at 10 µM [1] did it give?
**A.** 55%

**Q.** With CN(C)c1ccc(-c2nc(Cl)c(CC(=O)O)n2Cc2ccccc2)cc1Cl as the molecule, how does the inhibition at 1 µM [2] read?
**A.** 33%

**Q.** How did the inhibition at 1 µM [2] turn out when CN(C)c1ccc(-c2nc(Cl)c(CC(=O)O)n2Cc2ccccc2)cc1Br was run?
**A.** 18%

**Q.** Which inhibition at 1 µM [2] does the source give for O=C(O)Cc1c(Cl)nc(-c2ccc(O)c(O)c2)n1Cc1ccccc1 here?
**A.** 34%

**Q.** COc1cccc(-c2nc(Cl)c(CC(=O)O)n2Cc2ccccc2Cl)c1 was tested. Which inhibition at 1 µM [2] did it give?
**A.** 23%

**Q.** With COc1cc(-c2nc(Cl)c(CC(=O)O)n2Cc2ccccc2)ccc1O as the molecule, how does the inhibition at 1 µM [2] read?
**A.** 16%

**Q.** How did the inhibition at 1 µM [2] turn out when COc1ccccc1Cn1c(-c2ccccc2)nc(Cl)c1CC(=O)O was run?
**A.** 42%

**Q.** For COc1ccc(Cn2c(-c3ccccc3)nc(Cl)c2CC(=O)O)cc1, which inhibition at 10 µM [1] is on record?
**A.** 61%

**Q.** For CCOc1ccc(Cn2c(-c3ccccc3)nc(Cl)c2CC(=O)O)cc1, which inhibition at 1 µM [2] is on record?
**A.** 43%

**Q.** With CCOc1ccccc1Cn1c(-c2ccccc2)nc(Cl)c1CC(=O)O as the molecule, how does the inhibition at 1 µM [2] read?
**A.** 41%

**Q.** Which inhibition at 1 µM [2] does the source give for COc1ccc(Cn2c(-c3ccccc3)nc(Cl)c2CC(=O)O)cc1OC here?
**A.** 38%

**Q.** How did the inhibition at 1 µM [2] turn out when CCOc1ccc(Cn2c(-c3ccccc3)nc(Cl)c2CC(=O)O)cc1C was run?
**A.** 81%

**Q.** How did the inhibition at 1 µM [2] turn out when COc1ccc(-c2nc(Cl)c(CC(=O)O)n2Cc2ccccc2)cc1OC was run?
**A.** 18%

**Q.** COc1ccc(-c2nc(Cl)c(CC(=O)O)n2Cc2ccccc2)cc1C was tested. Which inhibition at 1 µM [2] did it give?
**A.** 32%

**Q.** Which inhibition at 1 µM [2] does the source give for COc1ccc(Cn2c(-c3ccc(OC)c(C)c3)nc(Cl)c2CC(=O)O)cc1C here?
**A.** 54%

**Q.** With COc1cc(-c2nc(Cl)c(CC(=O)O)n2Cc2ccccc2)ccc1OCc1ccccc1 as the molecule, how does the inhibition at 1 µM [2] read?
**A.** 18%

**Q.** For O=C(O)Cc1c(Cl)nc(C2CCCC2)n1Cc1ccccc1, which inhibition at 1 µM [2] is on record?
**A.** 34%

**Q.** How did the inhibition at 1 µM [2] turn out when O=C(O)Cc1c(Cl)nc(C2CCCCC2)n1Cc1ccccc1 was run?
**A.** 18%

**Q.** O=C(O)Cc1c(Cl)nc(-c2ccccc2)n1Cc1ccc(Cl)cc1Cl [1-(2,4-dichlorobenzyl)-4-chloro-2-phenylimidazole-5-acetic acid hydrochloride] was tested. Which inhibition at 10 µM [1] did it give?
**A.** 30%

**Q.** Which inhibition at 1 µM [2] does the source give for O=C(O)Cc1c(Cl)nc(-c2ccccc2)n1Cc1cc([N+](=O)[O-])ccc1Cl [1-(2-chloro-5-nitrobenzyl)-4-chloro-2-phenylimidazole-5-acetic acid] here?
**A.** 34%

**Q.** O=C(O)Cc1c(Cl)nc(-c2ccccc2)n1Cc1ccc(OCc2ccccc2)cc1 [1-(4-benzyloxybenzyl)-4-chloro-2-phenylimidazole-5-acetic acid] was tested. Which inhibition at 10 µM [1] did it give?
**A.** 19%

**Q.** O=C(O)Cc1c(Cl)nc(-c2ccccc2)n1Cc1ccc(Cl)cc1 [1-(4-chlorobenzyl)-4-chloro-2-phenylimidazole-5-acetic acid] was tested. Which inhibition at 10 µM [1] did it give?
**A.** 25%

**Q.** For O=C(O)Cc1c(Cl)nc(-c2ccccc2)n1Cc1ccccc1F [4-chloro-1-(2-fluorobenzyl)-2-phenylimidazole-5-acetic acid], which inhibition at 1 µM [2] is on record?
**A.** 23%

**Q.** COc1cccc(Cn2c(-c3ccccc3)nc(Cl)c2CC(=O)O)c1 [4-chloro-1-(3-methoxybenzyl)-2-phenylimidazole-5-acetic acid] was tested. Which inhibition at 10 µM [1] did it give?
**A.** 73%

**Q.** For Cc1ccc(Cn2c(-c3ccccc3)nc(Cl)c2CC(=O)O)cc1 [4-chloro-1-(4-methylbenzyl)-2-phenylimidazole-5-acetic acid], which inhibition at 10 µM [1] is on record?
**A.** 80%

**Q.** How did the inhibition at 1 µM [2] turn out when CCc1nc(Cl)c(CC(=O)O)n1Cc1ccccc1 [C2 H5 / H / H / H] was run?
**A.** 36%

**Q.** With Cc1nc(Cl)c(CC(=O)O)n1Cc1ccccc1 [CH3 / H / H / H] as the molecule, how does the inhibition at 10 µM [1] read?
**A.** 38%

**Q.** Which inhibition at 10 µM [1] does the source give for O=C(O)Cc1c(Cl)nc(-c2ccccc2)n1Cc1ccccc1Cl [drawing 92] here?
**A.** 90%

**Q.** How did the inhibition at 10 µM [1] turn out when Nc1ccc(-c2nc(Cl)c(CC(=O)O)n2Cc2ccccc2)cc1 [drawing 101] was run?
**A.** 50%

**Q.** With O=C(O)Cc1c(Cl)nc(-c2ccc(O)cc2)n1Cc1ccccc1 [drawing 103] as the molecule, how does the inhibition at 10 µM [1] read?
**A.** 32%

**Q.** Which inhibition at 1 µM does the source give for O=C(O)Cc1c(Cl)nc(-c2cc([N+](=O)[O-])c(Cl)c([N+](=O)[O-])c2)n1Cc1ccccc1 [drawing 108] here?
**A.** 82%

**Q.** For CCCCOc1ccc(Cn2c(-c3ccccc3)nc(Cl)c2CC(=O)O)cc1 [drawing 121], which inhibition at 1 µM [2] is on record?
**A.** 56%

**Q.** How did the inhibition at 1 µM [2] turn out when COc1ccc(Cn2c(-c3ccccc3)nc(Cl)c2CC(=O)O)cc1C [drawing 124, 4-chloro-1-(3-methyl-4-methoxybenzyl)-2-phenylimidazole-5-acetic acid] was run?
**A.** 80%

**Q.** CC(C)c1nc(Cl)c(CC(=O)O)n1Cc1ccccc1 [i-C3 H7 / H / H / H] was tested. Which inhibition at 1 µM [2] did it give?
**A.** 41%

**Q.** How did the inhibition at 1 µM [2] turn out when CCCc1nc(Cl)c(CC(=O)O)n1Cc1ccccc1 [n-C3 H7 / H / H / H] was run?
**A.** 22%

**Q.** How did the inhibition at 1 µM [2] turn out when CCCCc1nc(Cl)c(CC(=O)O)n1Cc1ccccc1OCC [n-C4 H9 / 2-C2 H5 O / H / H, 2-Butyl-4-chloro-1-(2-ethoxybenzyl)imidazole-5-acetic acid] was run?
**A.** 53%

**Q.** For CCCCc1nc(Cl)c(CC(=O)O)n1Cc1ccccc1[N+](=O)[O-] [n-C4 H9 / 2-NO2 / H / H], which inhibition at 0.01 µM (10^-8 M drug substance, A II 4×10^-9 M, 15 minutes) is on record?
**A.** 30%

**Q.** Which inhibition at 1 µM [2] does the source give for CCCCc1nc(Cl)c(CC(=O)O)n1Cc1ccc(OC)c(C)c1 [n-C4 H9 / 3-CH3 / 4-CH3 O / H] here?
**A.** 99%

**Q.** For CCCCOc1ccc(Cn2c(CCCC)nc(Cl)c2CC(=O)O)cc1 [n-C4 H9 / 4-n-C4 H9 O / H / H], which inhibition at 1 µM [2] is on record?
**A.** 85%

**Q.** With CCCCCc1nc(Cl)c(CC(=O)O)n1Cc1ccccc1Cl [n-C5 H11 / 2-Cl / H / H] as the molecule, how does the inhibition at 0.1 µM (A II 4×10^-9 M, 15 minutes) read?
**A.** 57%

**Q.** With CCCCCCc1nc(Cl)c(CC(=O)O)n1Cc1ccccc1Cl [n-C6 H13 / 2-Cl / H / H] as the molecule, how does the inhibition at 0.1 µM (A II 4×10^-9 M, 15 minutes) read?
**A.** 84%

**Q.** For CCCCCCc1nc(Cl)c(CC(=O)O)n1Cc1ccc(OC)c(C)c1 [n-C6 H13 / 3-CH3 / 4-CH3 O / H], which inhibition at 1 µM [2] is on record?
**A.** 100%

**Q.** Which inhibition at 1 µM [2] does the source give for CCCCCCc1nc(Cl)c(CC(=O)O)n1Cc1ccc(OCCCC)cc1 [n-C6 H13 / 4-n-C4 H9 O / H / H] here?
**A.** 100%

**Q.** Which inhibition at 1 µM [2] does the source give for CCCCCc1nc(Cl)c(CC(=O)O)n1Cc1ccccc1 [n-C 5 H11 / H / H / H] here?
**A.** 65%

**Q.** CC(C)(C)c1nc(Cl)c(CC(=O)O)n1Cc1ccccc1 [t-C4 H9 / H / H / H] was tested. Which inhibition at 1 µM [2] did it give?
**A.** 10%

From patent US4355040A, “Hypotensive imidazole-5-acetic acid derivatives” (Takeda Chemical Industries, Ltd., priority 1979, dated 1982)
